Experiment [1] has as its system total testosterone levels. Nature of the experiment: Phase II study of J867: total testosterone levels over 12 weeks. Format: in vivo, human (female subjects). Particulars: for mean testosterone concentration increase over the treatment period: female subjects, 12 week treatment, change from baseline. As to the method: (§1) The effect of SPRMs on testosterone levels and SHBG levels was studied using various doses of J867 over three months. The study was a phase II, multi-center, randomized, double blind, parallel group study of J867 at doses of 5 mg, 10 mg, and 25 mg once a day (QD)compared to placebo. Approximately 120 female subjects between the ages of 18 and 49 were enrolled in the study and randomly assigned to one of the four dosing groups above. During the 12 week study, testosterone and SHBG were measured at screening visits during weeks 2, 4, 8, and 12 of the study.
FIG. 1 is a graph showing total testosterone levels as a function of time during the study. […] Testosterone concentrations were relatively constant for the group receiving placebo. […] Over the treatment period, the mean testosterone concentrations for the 5 mg QD group increased approximately 7-15 ng/dL; the mean increase for the 10 mg QD group was approximately 15-21 ng/dL; and the mean concentrations observed following treatment with 25 mg QD increased approximately 16-25 ng/dL.

The test system of experiment [2] is sex hormone-binding globulin (SHBG). Nature of the experiment: Phase II study of J867: SHBG levels over 12 weeks. Format: in vivo, human (female subjects). Particulars: 12 week treatment. As to the method: as §1
SHBG levels were also measured at weeks 2, 4, 8, and 12 of the study.

The target in a further experiment is T1, progesterone receptor (Oryctolagus cuniculus, UniProt P06186).
T1 construct: effects of compounds at the progesterone receptor using a rabbit model; from tissue; host or cells: live rabbit (in vivo)
T1 sequence (P06186 1-930): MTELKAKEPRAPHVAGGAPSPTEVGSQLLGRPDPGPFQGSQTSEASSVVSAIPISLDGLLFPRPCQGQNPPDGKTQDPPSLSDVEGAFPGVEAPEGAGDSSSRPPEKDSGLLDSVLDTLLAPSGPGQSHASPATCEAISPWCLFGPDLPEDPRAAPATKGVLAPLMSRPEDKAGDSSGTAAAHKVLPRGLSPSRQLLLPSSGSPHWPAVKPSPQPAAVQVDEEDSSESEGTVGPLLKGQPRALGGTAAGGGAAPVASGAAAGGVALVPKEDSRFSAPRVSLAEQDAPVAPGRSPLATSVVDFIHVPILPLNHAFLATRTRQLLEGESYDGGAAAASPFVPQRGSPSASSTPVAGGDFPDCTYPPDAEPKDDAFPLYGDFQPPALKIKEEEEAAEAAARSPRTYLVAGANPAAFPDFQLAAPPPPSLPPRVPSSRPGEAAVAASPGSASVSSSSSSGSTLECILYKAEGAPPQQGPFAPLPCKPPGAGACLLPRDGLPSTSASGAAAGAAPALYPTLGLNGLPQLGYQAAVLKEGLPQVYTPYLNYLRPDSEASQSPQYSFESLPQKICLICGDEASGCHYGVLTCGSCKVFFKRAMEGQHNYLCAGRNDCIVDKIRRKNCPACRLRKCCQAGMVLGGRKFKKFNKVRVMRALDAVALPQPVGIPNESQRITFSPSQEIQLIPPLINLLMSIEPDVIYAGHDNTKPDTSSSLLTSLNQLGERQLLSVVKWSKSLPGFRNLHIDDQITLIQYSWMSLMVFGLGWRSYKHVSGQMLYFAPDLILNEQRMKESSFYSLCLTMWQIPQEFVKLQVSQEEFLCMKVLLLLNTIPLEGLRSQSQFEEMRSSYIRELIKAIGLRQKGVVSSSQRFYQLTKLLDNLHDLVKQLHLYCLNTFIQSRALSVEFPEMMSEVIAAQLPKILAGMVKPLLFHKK
Particulars: rabbit model, scale of 0-4; cited from earlier work.

SMILES strings stand for the structures.

`COC[C@]1(OC)CC[C@H]2[C@@H]3CCC4=CC(=O)CCC4=C3[C@@H](c3ccc(/C=N/O)cc3)C[C@@]21C` [J867, [4-[17β-Methoxy-17α-(methoxymethyl)-3-oxoestra-4,9-dien-11β-yl]benzaldehyd-(1E)-oxim]]: the figures for the “mean testosterone concentration increase over the treatment period” value in experiment [1] (5 mg QD), in experiment [1] (10 mg QD) and in experiment [1] (25 mg QD) were 7 to 15 ng/dL, 15 to 21 ng/dL and 16 to 25 ng/dL, respectively. Besides, the “total testosterone levels (FIG. 1)” value in experiment [1] (all doses (5, 10, 25 mg QD) compared to placebo) is “testosterone levels increased with all doses”. Also, the “visit with largest mean increase of testosterone from baseline” value in experiment [1] (all three dose groups (5, 10, 25 mg QD)) was determined as 2 week. The “testosterone concentrations at the end of the study” value in experiment [1] (all three dose groups, week 12) was “still elevated above baseline”. Further, the results for the “mean level of SHBG during treatment” value in experiment [2] (5 mg QD), in experiment [2] (10 mg QD) and in experiment [2] (25 mg QD) were “remained relatively constant”, “decreased from baseline” and “decreased from baseline”, respectively.
With `CC#C[C@]1(O)CC[C@H]2[C@@H]3CCC4=CC(=O)CCC4=C3[C@@H](c3ccc(N(C)C)cc3)C[C@@]21C` [RU486, mifepristone], the McPhail score result at progesterone receptor is given as “less than 0.5”.
For `CC(=O)[C@H]1CC[C@H]2[C@@H]3CCC4=CC(=O)CC[C@]4(C)[C@H]3CC[C@]12C` [progesterone], the McPhail score at progesterone receptor is reported as 4.

Source of the values: US20040248860A1, “Use of selective progesterone receptor modulators for the treatment of androgen deficiency” (priority 2002, published 2004).
